What follows are molecules tested on M. tuberculosis (assay: Extracellular activity against M. tuberculosis in cholesterol media (Alamar Blue reduction assay)). Settings: 7H12-Cholesterol media, 10 days; read-out: Cholesterol broth: alamar blue--EC50.
Assay type: cell-based, Mycobacterium tuberculosis

`O=C(Cc1cnccn1)N1CCC(n2nnc(-c3ccc(F)cc3)n2)CC1` [Compound 2, 1-(4-(5-(4-fluorophenyl)-2H-tetrazol-2-yl)piperidin-1-yl)-2-(pyrazin-2-yl)ethan-1-one] was tested, and the EC50 was over 10 µM.

Same assay, conditions: Mycobacterium tuberculosis, 240 h, 7H12-Cholesterol media, 10 days; read-out: Cholesterol broth: alamar blue--EC50

First: CCN(CC)C(=O)c1cn(C2CCCN(C(=O)Cc3nonc3C)C2)nn1 (centres unmarked) [Compound 245, N,N-diethyl-1-(1-(2-(4-methyl-1,2,5-oxadiazol-3-yl)acetyl)piperidin-3-yl)-1H-1,2,3-triazole-4-carboxamide]
Second: Cc1nonc1CC(=O)N1CCC(n2nnc(-c3ccccc3)n2)CC1 [Compound 80, 2-(4-methyl-1,2,5-oxadiazol-3-yl)-1-(4-(5-phenyl-2H-tetrazol-2-yl)piperidin-1-yl)ethan-1-one, reference compound]
The EC50 of the first is higher: over 10 µM for the first, 1.58 µM for the second. The second is the more potent here.

Compared with `Cc1noc(CC(=O)N2CCC(n3nnc(-c4ccc(Cl)cc4)n3)CC2)n1` [Compound 35, 1-(4-(5-(4-chlorophenyl)-2H-tetrazol-2-yl)piperidin-1-yl)-2-(3-methyl-1,2,4-oxadiazol-5-yl)ethan-1-one], `Cc1nonc1CC(=O)N1CCC(n2nnc(-c3ccc(Cl)cc3)n2)CC1` [Compound 97, 1-(4-(5-(4-chlorophenyl)-2H-tetrazol-2-yl)piperidin-1-yl)-2-(4-methyl-1,2,5-oxadiazol-3-yl)ethan-1-one] is 7.2-fold lower in EC50: 1.08 µM for the first, 0.149 µM for the second. The second is the more potent here.

First: Cn1ncnc1CC(=O)N1C[C@H]2C[C@@H](C1)[C@H]2c1nc(-c2ccc(Cl)cc2)no1 [Compound 219, 1-((1R,5S,6s)-6-(3-(4-chlorophenyl)-1,2,4-oxadiazol-5-yl)-3-azabicyclo[3.1.1]heptan-3-yl)-2-(1-methyl-1H-1,2,4-triazol-5-yl)ethan-1-one]
Second: Cn1ncnc1CC(=O)N1CCC(c2nc(-c3ccc(Cl)cc3)no2)CC1 [Compound 167, 1-(4-(3-(4-chlorophenyl)-1,2,4-oxadiazol-5-yl)piperidin-1-yl)-2-(1-methyl-1H-1,2,4-triazol-5-yl)ethan-1-one]
The EC50 of the first is higher: over 10 µM for the first, 0.221 µM for the second. The second is the more potent here.

`Cc1nonc1CC(=O)N1CCC(n2nnc(-c3ccccc3F)n2)CC1` [Compound 147, 1-(4-(5-(2-fluorophenyl)-2H-tetrazol-2-yl)piperidin-1-yl)-2-(4-methyl-1,2,5-oxadiazol-3-yl)ethan-1-one] and `Cc1nonc1CC(=O)N1CCC(c2nc(-c3ccccc3F)no2)CC1` [Compound 146, 1-(4-(3-(2-fluorophenyl)-1,2,4-oxadiazol-5-yl)piperidin-1-yl)-2-(4-methyl-1,2,5-oxadiazol-3-yl)ethan-1-one] are within 1.5-fold of each other in EC50: 1.45 µM for the first, 1.36 µM for the second.

`O=c1cc(CN2CCC(c3nc(-c4ccc(Cl)c(Cl)c4)no3)CC2)[nH]c(=O)[nH]1` [Compound 3, 6-((4-(3-(3,4-dichlorophenyl)-1,2,4-oxadiazol-5-yl)piperidin-1-yl)methyl)pyrimidine-2,4(1H,3H)-dione] and `Cc1nonc1CC(=O)N1CCC2(CC1)CC(c1nc(-c3ccc(Cl)c(Cl)c3)no1)C2` [Compound 230, 1-(2-(3-(3,4-dichlorophenyl)-1,2,4-oxadiazol-5-yl)-7-azaspiro[3.5]nonan-7-yl)-2-(4-methyl-1,2,5-oxadiazol-3-yl)ethan-1-one] are within 1.5-fold of each other in EC50: 0.179 µM for the first, 0.176 µM for the second.

Compared with `Cn1cnnc1CC(=O)N1CCC(n2nnc(-c3ccc(F)cc3)n2)CC1` [Compound 156, 1-(4-(5-(4-fluorophenyl)-2H-tetrazol-2-yl)piperidin-1-yl)-2-(4-methyl-4H-1,2,4-triazol-3-yl)ethan-1-one], `Cn1ncnc1CC(=O)N1CCC(n2nnc(-c3ccc(Cl)cc3)n2)CC1` [Compound 168, 1-(4-(5-(4-chlorophenyl)-2H-tetrazol-2-yl)piperidin-1-yl)-2-(1-methyl-1H-1,2,4-triazol-5-yl)ethan-1-one] is lower in EC50: over 10 µM for the first, 0.472 µM for the second. The second is the more potent here.

Compared with `Cc1nonc1CC(=O)N1CCC(c2nc(-c3ccc(OC(F)F)cc3)no2)CC1` [Compound 108, 1-(4-(3-(4-(difluoromethoxy)phenyl)-1,2,4-oxadiazol-5-yl)piperidin-1-yl)-2-(4-methyl-1,2,5-oxadiazol-3-yl)ethan-1-one], `Cc1nonc1CC(=O)N1CCC(c2nc(-c3ccc(F)cc3)no2)CC1` [Compound 130, 1-(4-(3-(4-fluorophenyl)-1,2,4-oxadiazol-5-yl)piperidin-1-yl)-2-(4-methyl-1,2,5-oxadiazol-3-yl)ethan-1-one] is 2.6-fold lower in EC50: 0.716 µM for the first, 0.275 µM for the second.

Compared with `Cc1nonc1CC(=O)N1CCC(c2nc(-c3ccc(F)cc3)no2)(C(F)(F)F)CC1` [Compound 139, 1-(4-(3-(4-fluorophenyl)-1,2,4-oxadiazol-5-yl)-4-(trifluoromethyl)piperidin-1-yl)-2-(4-methyl-1,2,5-oxadiazol-3-yl)ethan-1-one], `Cc1nonc1CC(=O)N1CC2CC1CC2c1nc(-c2ccc(F)cc2)no1` (centres unmarked) [Compound 199, 1-(5-(3-(4-fluorophenyl)-1,2,4-oxadiazol-5-yl)-2-azabicyclo[2.2.1]heptan-2-yl)-2-(4-methyl-1,2,5-oxadiazol-3-yl)ethan-1-one] is lower in EC50: over 10 µM for the first, 0.324 µM for the second. The second is the more potent here.

Going from `Cc1nonc1CC(=O)N1CCC(c2nc(C3CCC(F)(F)CC3)no2)CC1` [Compound 110, 1-(4-(3-(4,4-difluorocyclohexyl)-1,2,4-oxadiazol-5-yl)piperidin-1-yl)-2-(4-methyl-1,2,5-oxadiazol-3-yl)ethan-1-one] to `Cc1nonc1CC(=O)N1CCC(c2nc(C3CC3)no2)CC1` [Compound 61, 1-(4-(3-cyclopropyl-1,2,4-oxadiazol-5-yl)piperidin-1-yl)-2-(4-methyl-1,2,5-oxadiazol-3-yl)ethan-1-one], the EC50 rises from 0.969 µM to over 10 µM.

Going from `Cc1nonc1CC(=O)N1CCC(c2nc(C3CCC(F)CC3)no2)CC1` (centres unmarked) [Compound 115, 1-(4-(3-(4-fluorocyclohexyl)-1,2,4-oxadiazol-5-yl)piperidin-1-yl)-2-(4-methyl-1,2,5-oxadiazol-3-yl)ethan-1-one] to `Cc1nonc1CC(=O)N1CCC(c2nc([C@@H]3CC[C@@H](F)C3)no2)CC1` [Compound 114, 1-(4-(3-((1R,3R)-3-fluorocyclopentyl)-1,2,4-oxadiazol-5-yl)piperidin-1-yl)-2-(4-methyl-1,2,5-oxadiazol-3-yl)ethan-1-one], the EC50 falls from over 25 µM to 7.04 µM.

Going from `Cc1noc(CC(=O)N2CCC(c3nc(C4CCCC4)no3)CC2)n1` [Compound 20, 1-(4-(3-cyclopentyl-1,2,4-oxadiazol-5-yl)piperidin-1-yl)-2-(3-methyl-1,2,4-oxadiazol-5-yl)ethan-1-one] to `Cc1noc(CC(=O)N2CCC(c3nc(C4CCCC5CC54)no3)CC2)n1` (centres unmarked) [Compound 22, 1-(4-(3-(bicyclo[4.1.0]heptan-2-yl)-1,2,4-oxadiazol-5-yl)piperidin-1-yl)-2-(3-methyl-1,2,4-oxadiazol-5-yl)ethan-1-one], the EC50 falls from over 25 µM to 0.89 µM.

`Cc1noc(CC(=O)N2CCC(c3noc(C45CC(F)(C4)C5)n3)CC2)n1` [Compound 43, 1-(4-(5-(3-fluorobicyclo[1.1.1]pentan-1-yl)-1,2,4-oxadiazol-3-yl)piperidin-1-yl)-2-(3-methyl-1,2,4-oxadiazol-5-yl)ethan-1-one] and `Cc1noc(CC(=O)N2CCC(O)(c3nc(C4CCC(F)(F)CC4)no3)CC2)n1` [Compound 42, 1-(4-(3-(4,4-difluorocyclohexyl)-1,2,4-oxadiazol-5-yl)-4-hydroxypiperidin-1-yl)-2-(3-methyl-1,2,4-oxadiazol-5-yl)ethan-1-one] cannot be ordered by EC50: over 25 µM for the first, over 10 µM for the second.

Going from `Cc1nonc1CC(=O)N1CCC(c2nc(-c3cccc(F)c3)no2)CC1` [Compound 144, 1-(4-(3-(3-fluorophenyl)-1,2,4-oxadiazol-5-yl)piperidin-1-yl)-2-(4-methyl-1,2,5-oxadiazol-3-yl)ethan-1-one] to `Cc1noc(CC(=O)N2CCC(c3nc(-c4ccc(F)cc4Cl)no3)CC2)n1` [Compound 46, 1-(4-(3-(2-chloro-4-fluorophenyl)-1,2,4-oxadiazol-5-yl)piperidin-1-yl)-2-(3-methyl-1,2,4-oxadiazol-5-yl)ethan-1-one], the EC50 rises from 0.59 µM to 2.97 µM (5-fold). The first is the more potent here.

`Cc1noc(CC(=O)N2CCC(c3nc(C4CC5CCC4C5)no3)CC2)n1` (centres unmarked) [Compound 18, 1-(4-(3-(bicyclo[2.2.1]heptan-2-yl)-1,2,4-oxadiazol-5-yl)piperidin-1-yl)-2-(3-methyl-1,2,4-oxadiazol-5-yl)ethan-1-one] and `Cc1noc(CC(=O)N2CCC(c3nc(-c4ccc(F)cc4)co3)CC2)n1` [Compound 52, 1-(4-(4-(4-fluorophenyl)oxazol-2-yl)piperidin-1-yl)-2-(3-methyl-1,2,4-oxadiazol-5-yl)ethan-1-one] cannot be ordered by EC50: over 10 µM for the first, over 10 µM for the second.

`Cn1ncnc1CC(=O)N1CCC(c2nc(-c3ccc(F)c(C(F)(F)F)c3)no2)CC1` [Compound 181] and `Cn1ncnc1CC(=O)N1CCC(c2nc(-c3ccc(F)cc3F)no2)CC1` [Compound 180, 1-(4-(3-(2,4-difluorophenyl)-1,2,4-oxadiazol-5-yl)piperidin-1-yl)-2-(1-methyl-1H-1,2,4-triazol-5-yl)ethan-1-one] are within 1.5-fold of each other in EC50: 0.467 µM for the first, 0.48 µM for the second.

`Cc1nonc1CC(=O)N1CCN(c2ncn(-c3ccc(F)cc3)n2)CC1` [Compound 250, 1-(4-(1-(4-fluorophenyl)-1H-1,2,4-triazol-3-yl)piperazin-1-yl)-2-(4-methyl-1,2,5-oxadiazol-3-yl)ethan-1-one] and `Cc1nocc1CC(=O)N1CC2CC(C1)C2c1nc(-c2ccc(F)cc2)no1` (centres unmarked) [Compound 210, 1-(6-(3-(4-fluorophenyl)-1,2,4-oxadiazol-5-yl)-3-azabicyclo[3.1.1]heptan-3-yl)-2-(3-methylisoxazol-4-yl)ethan-1-one] cannot be ordered by EC50: over 10 µM for the first, at least 25 µM for the second.

`Cn1ncnc1CC(=O)N1CCC(n2nnc(-c3ccc(F)c(F)c3)n2)CC1` [Compound 185, 1-(4-(5-(3,4-difluorophenyl)-2H-tetrazol-2-yl)piperidin-1-yl)-2-(1-methyl-1H-1,2,4-triazol-5-yl)ethan-1-one] and `Cn1ncnc1CC(=O)N1CC2CC1CC2c1nc(-c2ccc(Cl)cc2F)no1` (centres unmarked) [Compound 204, 1-(5-(3-(4-chloro-2-fluorophenyl)-1,2,4-oxadiazol-5-yl)-2-azabicyclo[2.2.1]heptan-2-yl)-2-(1-methyl-1H-1,2,4-triazol-5-yl)ethan-1-one] are the same in EC50: 0.74 µM for the first, 0.74 µM for the second.

From patent US20260048047A1, “SMALL-MOLECULE ACTIVATORS OF MYCOBACTERIUM TUBERCULOSIS ADENYLYL CYCLASE” (priority 2022, published 2026)
